Tested on: A549 non-small cell lung cancer cell line
Test: treatment of tumor growth in vivo, A549 tumor xenografts
Parameters: species or system athymic nude mice (CD1, nu/nu)
Details: A549 xenograft in nude mice; 50 μl of 1.5 mM peptide injected into the tumoral region
Experimental: Cell Culture The A549 (wt p53, and wt RB) non-small cell lung cancer cell line was cultured in Ham's F-12 with NaHCO3 (0.75 g NaHCO3/500 ml of Ham's F-12) and 10% (vol/vol) fetal bovine serum (FBS). The cells were cultured at 37° C. in a humidified incubator containing 5% CO2. Cells were harvested, when they reached 70-80% confluence.
Preparation of Tumor Xenografts in Immunodeficient Mice: The animal experiments were carried out in accordance with the Guidelines for the Care and Use of Laboratory Animals (National Institute of Health publication number 85-23) and the institutional guidelines of Temple University. 4-6 week-old female athymic nude mice (CD1, nu/nu) were bought from Charles River Laboratory (Wilmington, Mass.). About a week after the mice arrived, the A549 cells were harvested and then suspended in unsupplemented culture medium without FBS. After the mice were anesthetized by isoflurane inhalation, 4×10^6 cells in a final volume of 100 μl were injected subcutaneously into the right flank of each mouse by using 1-cc syringes with 25.5-gauge needles.
In Vivo Treatments: The length and width of each tumor were measured every time in triplicates by using a Vernier caliper. […]
For each peptide type, three mice were treated. […] The tumor sizes were measured before each treatment. Tumor volumes were calculated and plotted on a graph. […]

Spa310: pRb2/p130 amino acids 641-679 (39 amino acids long), SEQ ID NO:3; LTPRRVTEVRADTGGLGRSITSPTTLYDRYSSPPASTTR (listed as Homo sapiens)
tumor growth: does suppress the tumor growth
